Values quoted from earlier work as cited in patent US8222294B2, “Combinations of an anti emetic agent and an enkephalinase inhibitor” (Bioproject, priority 2004, dated 2012).

Test system: cholera toxins
Settings: cited from earlier work

| Structure (SMILES) | antisecretory activity |
| --- | --- |
| CC(=O)SC[C@H](Cc1ccccc1)C(=O)NCC(=O)OCc1ccccc1 [dexecadotril] | active |
| Cc1nccn1CC1CCc2c(c3ccccc3n2C)C1=O (stereo not drawn) [ondansetron] | not |
| CC(=O)SCC(Cc1ccccc1)C(=O)NCC(=O)OCc1ccccc1 (stereo not drawn) [racecadotril] | active |
